According to patent US10556884B2, “Pesticidally active heterocyclic derivatives with sulphur containing substituents” (SYNGENTA PARTICIPATIONS AG, priority 2015, dated 2020):
Like-named read-outs stand apart in the source and are kept apart here.

How the values were obtained:
[1] = system: Myzus persicae (Green Peach Aphid); assay: Myzus persicae feeding/contact activity, sunflower leaf discs; format: in vivo; conditions: foliar, 144 h
Protocol: Example B5: Myzus persicae (Green Peach Aphid): Feeding/Contact Activity
(§1) Sunflower leaf discs were placed onto agar in a 24-well microtiter plate and sprayed with aqueous test solutions prepared from 10′000 ppm DMSO stock solutions. After drying, the leaf discs were infested with an aphid population of mixed ages. The samples were assessed for mortality 6 days after infestation.

[2] = system: Myzus persicae (Green Peach Aphid); assay: Myzus persicae systemic activity, pea seedlings; format: in vivo; conditions: 144 h, test rate of 24 ppm, 6 days after placing seedlings into test solutions
[3] = system: Diabrotica Balteata (Corn Root Worm); assay: Diabrotica balteata L2 larvae on maize sprouts; format: in vivo; conditions: 96 h, read-out: effect in at least one of the two categories (mortality or growth inhibition); for percent effect (mortality or growth inhibition) at 200 ppm: application rate of 200 ppm, L2 larvae, 4 days after infestation
Protocol: Example B2: Diabrotica Balteata (Corn Root Worm)
Maize sprouts placed onto an agar layer in 24-well microtiter plates were treated with aqueous test solutions prepared from 10′000 ppm DMSO stock solutions by spraying. After drying, the plates were infested with L2 larvae (6 to 10 per well). The samples were assessed for mortality and growth inhibition in comparison to untreated samples 4 days after infestation.

[4] = system: Plutella xylostella (Diamond Back Moth); assay: Plutella xylostella L2 larvae on artificial diet; format: in vivo; conditions: 120 h, read-out: effect in at least one of the two categories (mortality or growth inhibition); for percent effect (mortality or growth inhibition) at 200 ppm: application rate of 200 ppm, L2 larvae, 5 days after infestation
Protocol: Example B7: Plutella xylostella (Diamond Back Moth)
24-well microtiter plates with artificial diet were treated with aqueous test solutions prepared from 10′000 ppm DMSO stock solutions by pipetting. After drying, the plates were infested with L2 larvae (10 to 15 per well). The samples were assessed for mortality and growth inhibition in comparison to untreated samples 5 days after infestation.

[5] = system: Spodoptera littoralis (Egyqptian Cotton Leaf Worm); assay: Spodoptera littoralis L1 larvae on sprayed cotton leaf discs; format: in vivo; conditions: foliar, 72 h, read-out: control (mortality, anti-feeding effect, growth inhibition)
Protocol: Example B8: Spodoptera littoralis (Egyqptian Cotton Leaf Worm)
Cotton leaf discs were placed onto agar in 24-well microtiter plates and sprayed with aqueous test solutions prepared from 10′000 ppm DMSO stock solutions. After drying the leaf discs were infested with five L1 larvae. The samples were assessed for mortality, anti-feeding effect, and growth inhibition in comparison to untreated samples 3 days after infestation. Control of Spodoptera littoralis by a test sample is given when at least one of the categories mortality, anti-feedant effect, and growth inhibition is higher than the untreated sample.

[6] = system: Thrips tabaci (Onion Thrips); assay: Thrips tabaci feeding/contact activity, sunflower leaf discs; format: in vivo; conditions: foliar, 144 h, application rate of 200 ppm, population of mixed ages, 6 days after infestation
Protocol: Example B11: Thrips tabaci (Onion Thrips) Feeding/Contact Activity
as §1, with “on” for “onto”, “in” for “in a”, “plates” for “plate”, “drying” for “drying,”, “a thrips” for “an aphid”

[7] = application rate of 200 ppm, feeding/contact, population of mixed ages, 6 days after infestation, read-out: mortality
[8] = application rate of 200 ppm, L1 larvae, 3 days after infestation

| Structure (SMILES) | mortality at 200 ppm [1, 7] [%] | mortality at 24 ppm [2] [%] | further results |
| --- | --- | --- | --- |
| CCSc1cc(NC(=O)C2CC2)cnc1-c1nnc(-c2cc(C(F)(F)F)ccn2)n1C [A1, N-[5-ethylsulfanyl-6-[4-methyl-5-[4-(trifluoromethyl)-2-pyridyl]-1,2,4-triazol-3-yl]-3-pyridyl]cyclopropanecarboxamide] | ≥ 80 | – | – |
| CCS(=O)(=O)c1cc(C=O)cnc1-c1nnc(-c2cc(C(F)(F)F)ccn2)n1C [A3, 5-ethylsulfonyl-6-[4-methyl-5-[4-(trifluoromethyl)-2-pyridyl]-1,2,4-triazol-3-yl]pyridine-3-carbaldehyde] | ≥ 80 | ≥ 80 | – |
| CCS(=O)(=O)c1cc(C(C)=O)cnc1-c1nnc(-c2cc(C(F)(F)F)ccn2)n1C [A4, 1-[5-ethylsulfonyl-6-[4-methyl-5-[4-(trifluoromethyl)-2-pyridyl]-1,2,4-triazol-3-yl]-3-pyridyl]ethanone] | – | ≥ 80 | – |
| CCS(=O)(=O)c1ccc(NC2CC2)nc1-c1nnc(-c2cc(C(F)(F)F)ccn2)n1C [A5, N-cyclopropyl-5-ethylsulfonyl-6-[4-methyl-5-[4-(trifluoromethyl)-2-pyridyl]-1,2,4-triazol-3-yl]pyridin-2-amine] | ≥ 80 | ≥ 80 | – |
| CCS(=O)(=O)c1ccc(N(C)C(=O)C2CC2)nc1-c1nnc(-c2cc(C(F)(F)F)ccn2)n1C [A8, N-[5-ethylsulfonyl-6-[4-methyl-5-[4-(trifluoromethyl)-2-pyridyl]-1,2,4-triazol-3-yl]-2-pyridyl]-N-methyl-cyclopropanecarboxamide] | ≥ 80 | ≥ 80 | percent effect (mortality or growth inhibition) at 200 ppm [3]: ≥ 80%; percent effect (mortality or growth inhibition) at 200 ppm [4]: ≥ 80%; mortality at 200 ppm [5, 8]: ≥ 80%; mortality at 200 ppm [6]: ≥ 80% |
| CCS(=O)(=O)c1cc(N(C)C2CC2)cnc1-c1nnc(-c2cc(C(F)(F)F)ccn2)n1C [A10, N-cyclopropyl-5-ethylsulfonyl-N-methyl-6-[4-methyl-5-[4-(trifluoromethyl)-2-pyridyl]-1,2,4-triazol-3-yl]pyridin-3-amine] | ≥ 80 | – | mortality at 200 ppm [5, 8]: ≥ 80% |
| CCS(=O)(=O)c1ccc(N(C)C2CC2)nc1-c1nnc(-c2cc(C(F)(F)F)ccn2)n1C [A11, N-cyclopropyl-5-ethylsulfonyl-N-methyl-6-[4-methyl-5-[4-(trifluoromethyl)-2-pyridyl]-1,2,4-triazol-3-yl]pyridin-2-amine] | ≥ 80 | ≥ 80 | – |
| CCS(=O)(=O)c1cc(N(C)S(C)(=O)=O)cnc1-c1nnc(-c2cc(C(F)(F)F)ccn2)n1C [A12, N-[5-ethylsulfonyl-6-[4-methyl-5-[4-(trifluoromethyl)-2-pyridyl]-1,2,4-triazol-3-yl]-3-pyridyl]-N-methyl-methanesulfonamide] | ≥ 80 | ≥ 80 | – |
| CCS(=O)(=O)c1cc(NS(C)(=O)=O)cnc1-c1nnc(-c2cc(C(F)(F)F)ccn2)n1C [A14, N-[5-ethylsulfonyl-6-[4-methyl-5-[4-(trifluoromethyl)-2-pyridyl]-1,2,4-triazol-3-yl]-3-pyridyl]methanesulfonamide] | – | – | melting point: 228 to 230 °C |
| CCS(=O)(=O)c1cc(C(=O)N(C)C2CC2)cnc1-c1nnc(-c2cc(C(F)(F)F)ccn2)n1C [A16, N-cyclopropyl-5-ethylsulfonyl-N-methyl-6-[4-methyl-5-[4-(trifluoromethyl)-2-pyridyl]-1,2,4-triazol-3-yl]pyridine-3-carboxamide] | – | – | melting point: 235 to 237 °C |
| CCS(=O)(=O)c1ccc(C(=O)NC2CC2)nc1-c1nnc(-c2cc(C(F)(F)F)ccn2)n1C [A19, N-cyclopropyl-5-ethylsulfonyl-6-[4-methyl-5-[4-(trifluoromethyl)-2-pyridyl]-1,2,4-triazol-3-yl]pyridine-2-carboxamide] | ≥ 80 | ≥ 80 | mortality at 200 ppm [6]: ≥ 80% |
| CCS(=O)(=O)c1cc(N(C(=O)C2CC2)S(C)(=O)=O)cnc1-c1nnc(-c2cc(C(F)(F)F)ccn2)n1C [A20, N-[5-ethylsulfonyl-6-[4-methyl-5-[4-(trifluoromethyl)-2-pyridyl]-1,2,4-triazol-3-yl]-3-pyridyl]-N-methylsulfonyl-cyclopropanecarboxamide] | – | – | melting point: 229 to 231 °C |
| CCS(=O)(=O)c1cc(NC2(C#N)CC2)cnc1-c1nnc(-c2cc(C(F)(F)F)ccn2)n1C [A22, 1-[[5-ethylsulfonyl-6-[4-methyl-5-[4-(trifluoromethyl)-2-pyridyl]-1,2,4-triazol-3-yl]-3-pyridyl]amino]cyclopropanecarbonitrile] | – | ≥ 80 | – |
| CCS(=O)(=O)c1cc(C(=O)NC2(C#N)CC2)cnc1-c1nnc(-c2cc(C(F)(F)F)ccn2)n1C [A23, N-(1-cyanocyclopropyl)-5-ethylsulfonyl-6-[4-methyl-5-[4-(trifluoromethyl)-2-pyridyl]-1,2,4-triazol-3-yl]pyridine-3-carboxamide] | – | – | melting point: 211 to 213 °C |
| CCS(=O)(=O)c1cc(N/C=N/OC)cnc1-c1nnc(-c2cc(C(F)(F)F)ccn2)n1C [A24, N-[5-ethylsulfonyl-6-[4-methyl-5-[4-(trifluoromethyl)-2-pyridyl]-1,2,4-triazol-3-yl]-3-pyridyl]-N′-methoxy-formamidine] | – | ≥ 80 | – |
| CCS(=O)(=O)c1cc(N(C)/C=N/OC)cnc1-c1nnc(-c2cc(C(F)(F)F)ccn2)n1C [A25, N-[5-ethylsulfonyl-6-[4-methyl-5-[4-(trifluoromethyl)-2-pyridyl]-1,2,4-triazol-3-yl]-3-pyridyl]-N′-methoxy-N-methyl-formamidine] | ≥ 80 | ≥ 80 | – |
| CCS(=O)(=O)c1ccc(N(CC(F)(F)F)C(=O)C2CC2)nc1-c1nnc(-c2cc(C(F)(F)F)ccn2)n1C [A29, N-[5-ethylsulfonyl-6-[4-methyl-5-[4-(trifluoromethyl)-2-pyridyl]-1,2,4-triazol-3-yl]-2-pyridyl]-N-(2,2,2-trifluoroethyl)cyclopropanecarboxamide] | ≥ 80 | – | percent effect (mortality or growth inhibition) at 200 ppm [3]: ≥ 80%; percent effect (mortality or growth inhibition) at 200 ppm [4]: ≥ 80%; mortality at 200 ppm [5, 8]: ≥ 80%; mortality at 200 ppm [6]: ≥ 80% |
| CCS(=O)(=O)c1cc(N(C)N(C)C(=O)C2CC2)cnc1-c1nnc(-c2cc(C(F)(F)F)ccn2)n1C [A31, N′-[5-ethylsulfonyl-6-[4-methyl-5-[4-(trifluoromethyl)-2-pyridyl]-1,2,4-triazol-3-yl]-3-pyridyl]-N,N′-dimethyl-cyclopropanecarbohydrazide] | ≥ 80 | ≥ 80 | – |
| CCS(=O)(=O)c1cc(N)cnc1-c1nnc(-c2cc(C(F)(F)F)ccn2)n1C [A35, 5-ethylsulfonyl-6-[4-methyl-5-[4-(trifluoromethyl)-2-pyridyl]-1,2,4-triazol-3-yl]pyridin-3-amine] | ≥ 80 | – | – |
| CCS(=O)(=O)c1ccc(N(C)C(=O)OC(C)(C)C)nc1-c1nnc(-c2cc(C(F)(F)F)ccn2)n1C [A38, Tert-Butyl N-[5-ethylsulfonyl-6-[4-methyl-5-[4-(trifluoromethyl)-2-pyridyl]-1,2,4-triazol-3-yl]-2-pyridyl]-N-methyl-carbamate] | – | – | percent control (mortality or growth inhibition) at 200 ppm [3]: ≥ 80%; mortality at 200 ppm [1]: ≥ 80%; percent control (mortality or growth inhibition) at 200 ppm [4]: ≥ 80%; mortality at 200 ppm [5]: ≥ 80% |
| CCS(=O)(=O)c1cc(N(C)C(=O)OC(C)(C)C)cnc1-c1nnc(-c2cc(C(F)(F)F)ccn2)n1C [A39, Tert-Butyl N-[5-ethylsulfonyl-6-[4-methyl-5-[4-(trifluoromethyl)-2-pyridyl]-1,2,4-triazol-3-yl]-3-pyridyl]-N-methyl-carbamate] | – | – | percent control (mortality or growth inhibition) at 200 ppm [3]: ≥ 80%; percent control (mortality or growth inhibition) at 200 ppm [4]: ≥ 80%; mortality at 200 ppm [5]: ≥ 80% |
| CCS(=O)(=O)c1ccc(NC)nc1-c1nnc(-c2cc(C(F)(F)F)ccn2)n1C [A41, 5-ethylsulfonyl-N-methyl-6-[4-methyl-5-[4-(trifluoromethyl)-2-pyridyl]-1,2,4-triazol-3-yl]pyridin-2-amine] | ≥ 80 | ≥ 80 | – |
